How the values were obtained:
Substance-P receptor [1] = target: T1, Substance-P receptor (Homo sapiens, UniProt P25103); assay: Antagonist activity at human recombinant NK1 receptor expressed in human U20S cells assessed as effect on substance P-induced intracellular calcium level by FLIPR assay; assay type: functional, cell-based, U2OS
Neuromedin-K receptor = target: T2, Neuromedin-K receptor (Homo sapiens, UniProt P29371); assay: Antagonist activity at human recombinant NK3 receptor expressed in human U20S cells assessed as effect on NKB-induced intracellular calcium level by FLIPR assay; assay type: functional, cell-based, U2OS
T2 sequence (P29371 whole entry): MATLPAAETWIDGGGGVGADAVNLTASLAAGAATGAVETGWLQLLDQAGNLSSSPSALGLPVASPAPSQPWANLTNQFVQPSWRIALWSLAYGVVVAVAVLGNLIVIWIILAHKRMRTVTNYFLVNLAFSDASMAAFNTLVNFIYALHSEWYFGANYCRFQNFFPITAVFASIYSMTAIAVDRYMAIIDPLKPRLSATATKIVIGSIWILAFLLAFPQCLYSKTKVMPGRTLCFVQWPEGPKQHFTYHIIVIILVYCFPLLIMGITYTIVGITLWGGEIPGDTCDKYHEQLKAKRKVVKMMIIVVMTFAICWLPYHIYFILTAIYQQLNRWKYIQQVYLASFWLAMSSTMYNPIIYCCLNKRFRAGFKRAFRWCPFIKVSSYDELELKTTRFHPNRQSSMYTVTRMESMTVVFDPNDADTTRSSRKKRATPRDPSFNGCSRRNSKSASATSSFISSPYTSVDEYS

Substance-P receptor [2] = target: T1, Substance-P receptor; assay: Antagonist activity at human recombinant NK1 receptor expressed in human U20S cells assessed as substance P maximal stimulation at 1 nM by FLIPR assay; assay type: functional, cell-based; details: U2OS
Substance-P receptor [3] = target: T1, Substance-P receptor; assay: Antagonist activity at human recombinant NK1 receptor expressed in human U20S cells assessed as substance P maximal stimulation at 3 nM by FLIPR assay; assay type: functional, cell-based; details: U2OS
[4] = target: T3, Neuromedin-K receptor (Homo sapiens) (UniProt P29371); assay: Antagonist activity at human recombinant NK3 receptor expressed in human U20S cells assessed as neurokinin B maximal stimulation at 30 nM by FLIPR assay; details: U2OS
T3 sequence (whole entry): T2 sequence (P29371 whole entry)

[5] = target: T3, Neuromedin-K receptor (Homo sapiens); assay: Antagonist activity at human recombinant NK3 receptor expressed in human U20S cells assessed as neurokinin B maximal stimulation at 100 nM by FLIPR assay; details: U2OS

T1 sequence (P25103 whole entry): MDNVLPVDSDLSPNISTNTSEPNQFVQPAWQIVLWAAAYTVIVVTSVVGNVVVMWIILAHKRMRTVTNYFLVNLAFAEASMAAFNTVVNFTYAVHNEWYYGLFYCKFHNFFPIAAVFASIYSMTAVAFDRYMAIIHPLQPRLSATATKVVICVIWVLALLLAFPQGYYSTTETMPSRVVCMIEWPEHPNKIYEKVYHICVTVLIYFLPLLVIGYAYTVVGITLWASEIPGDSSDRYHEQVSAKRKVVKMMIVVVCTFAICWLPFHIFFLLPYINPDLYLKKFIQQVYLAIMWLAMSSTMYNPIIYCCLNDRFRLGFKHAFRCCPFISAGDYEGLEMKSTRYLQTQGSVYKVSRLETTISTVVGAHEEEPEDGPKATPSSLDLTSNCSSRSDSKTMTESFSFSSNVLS

SMILES | Ki (Substance-P receptor [1]) [nM] | Ki (Neuromedin-K receptor) [nM] | Emax (Substance-P receptor [2]) [%] | Emax (Substance-P receptor [3]) [%] | Emax [4] [%] | Emax [5] [%]
Cc1cc(F)ccc1-c1cc(C2NC(=O)CC2CO)ncc1N(C)C(=O)C(C)(C)c1cc(C(F)(F)F)cc(C(F)(F)F)c1 (single isomer, unassigned; 9b) [listing 1 of 2 here] | 0.316 | 31.6 | – | – | – | –
Cc1cc(F)ccc1-c1cc(C2CC(=O)NC2(CO)CO)ncc1N(C)C(=O)C(C)(C)c1cc(C(F)(F)F)cc(C(F)(F)F)c1 (single isomer, unassigned; enantiomer 1) | < 0.158 | 6.31 | – | – | – | –
Cc1cc(F)ccc1-c1cc(C2CC(=O)NC2(CO)CO)ncc1N(C)C(=O)C(C)(C)c1cc(C(F)(F)F)cc(C(F)(F)F)c1 (racemic) [listing 1 of 2 here] | 0.1 | 5.01 | – | – | – | –
Cc1cc(F)ccc1-c1cc(C2CNC(=O)C2CO)ncc1N(C)C(=O)C(C)(C)c1cc(C(F)(F)F)cc(C(F)(F)F)c1 (single isomer, unassigned; enantiomer 2) [listing 1 of 2 here] | 0.158 | 1.58 | – | – | – | –
Cc1cc(F)ccc1-c1cc(C2CNC(=O)C2CO)ncc1N(C)C(=O)C(C)(C)c1cc(C(F)(F)F)cc(C(F)(F)F)c1 (single isomer, unassigned; enantiomer 1) [listing 1 of 2 here] | 0.0501 | 79.4 | – | – | – | –
Cc1cc(F)ccc1-c1cc(C2CNC(=O)C2CO)ncc1N(C)C(=O)C(C)(C)c1cc(C(F)(F)F)cc(C(F)(F)F)c1 (racemic) [listing 1 of 2 here] | 0.251 | 7.94 | – | – | – | –
Cc1cc(F)ccc1-c1cc(C2NC(=O)CC2CO)ncc1N(C)C(=O)C(C)(C)c1cc(C(F)(F)F)cc(C(F)(F)F)c1 (single isomer, unassigned; 9a) [listing 2 of 2 here] | 0.251 | 5.01 | – | – | – | –
Cc1cc(F)ccc1-c1cc(C2CNC(=O)C2CO)ncc1N(C)C(=O)C(C)(C)c1cc(C(F)(F)F)cc(C(F)(F)F)c1 (racemic) [listing 2 of 2 here] | – | – | 109 | 63 | – | –
Cc1cc(F)ccc1-c1cc(C2NC(=O)CC2CO)ncc1N(C)C(=O)C(C)(C)c1cc(C(F)(F)F)cc(C(F)(F)F)c1 (single isomer, unassigned; 8b) | 0.501 | 501 | – | – | – | –
Cc1cc(F)ccc1-c1cc(C2CC(=O)NC2(CO)CO)ncc1N(C)C(=O)C(C)(C)c1cc(C(F)(F)F)cc(C(F)(F)F)c1 (single isomer, unassigned; enantiomer 2) | < 0.158 | 631 | – | – | – | –
Cc1cc(F)ccc1-c1cc(C2NC(=O)CC2CO)ncc1N(C)C(=O)C(C)(C)c1cc(C(F)(F)F)cc(C(F)(F)F)c1 (single isomer, unassigned; 8a) [listing 2 of 2 here] | 0.0794 | 39.8 | – | – | – | –
Cc1cc(F)ccc1-c1cc(C2CC(=O)NC2(CO)CO)ncc1N(C)C(=O)C(C)(C)c1cc(C(F)(F)F)cc(C(F)(F)F)c1 (racemic) [listing 2 of 2 here] | – | – | 89 | 28 | – | –
Cc1cc(F)ccc1-c1cc(C2NC(=O)CC2CO)ncc1N(C)C(=O)C(C)(C)c1cc(C(F)(F)F)cc(C(F)(F)F)c1 (single isomer, unassigned; 9b) [listing 2 of 2 here] | – | – | 79 | 30 | – | –
Cc1cc(F)ccc1-c1cc(C2CC(=O)NC2CO)ncc1N(C)C(=O)C(C)(C)c1cc(C(F)(F)F)cc(C(F)(F)F)c1 (single isomer, unassigned; 22a) [listing 2 of 2 here] | – | – | 103 | 39 | 101 | 76

Results, then the molecule that gave them:

Ki (Substance-P receptor [1]) [nM] | Ki (Neuromedin-K receptor) [nM] | Emax (Substance-P receptor [2]) [%] | Emax (Substance-P receptor [3]) [%] | Emax [4] [%] | Emax [5] [%] | SMILES
0.251 | 20 | – | – | – | – | Cc1cc(F)ccc1-c1cc(C2CC(=O)NC2CO)ncc1N(C)C(=O)C(C)(C)c1cc(C(F)(F)F)cc(C(F)(F)F)c1 (single isomer, unassigned; 22b)
– | – | 98 | 60 | 83 | 74 | Cc1cc(F)ccc1-c1cc(C2NC(=O)CC2CO)ncc1N(C)C(=O)C(C)(C)c1cc(C(F)(F)F)cc(C(F)(F)F)c1 (single isomer, unassigned; 9a) [listing 1 of 2 here]
< 0.158 | 31.6 | 64 | 20 | – | – | Cc1cc(F)ccc1-c1cc(C2CNC(=O)C2)ncc1N(C)C(=O)C(C)(C)c1cc(C(F)(F)F)cc(C(F)(F)F)c1 (stereo not drawn)
– | – | 64 | 25 | – | – | Cc1cc(F)ccc1-c1cc(C2NC(=O)CC2CO)ncc1N(C)C(=O)C(C)(C)c1cc(C(F)(F)F)cc(C(F)(F)F)c1 (single isomer, unassigned; 8a) [listing 1 of 2 here]
0.251 | 2 | – | – | – | – | Cc1cc(F)ccc1-c1cc(C2CC(=O)NC2CO)ncc1N(C)C(=O)C(C)(C)c1cc(C(F)(F)F)cc(C(F)(F)F)c1 (single isomer, unassigned; 22a) [listing 1 of 2 here]
– | – | 101 | 37 | – | – | Cc1cc(F)ccc1-c1cc(C2CNC(=O)C2CO)ncc1N(C)C(=O)C(C)(C)c1cc(C(F)(F)F)cc(C(F)(F)F)c1 (single isomer, unassigned; enantiomer 2) [listing 2 of 2 here]
0.0631 | 1 | 66 | 5 | 67 | 56 | Cc1cc(F)ccc1-c1cc(C2CN(C)C(=O)C2CO)ncc1N(C)C(=O)C(C)(C)c1cc(C(F)(F)F)cc(C(F)(F)F)c1 (single isomer, unassigned)
– | – | 103 | 19 | – | – | Cc1cc(F)ccc1-c1cc(C2CNC(=O)C2CO)ncc1N(C)C(=O)C(C)(C)c1cc(C(F)(F)F)cc(C(F)(F)F)c1 (single isomer, unassigned; enantiomer 1) [listing 2 of 2 here]
< 0.158 | 794 | – | – | – | – | Cc1cc(F)ccc1-c1cc(C2CC(=O)NC2CO)ncc1N(C)C(=O)C(C)(C)c1cc(C(F)(F)F)cc(C(F)(F)F)c1 (single isomer, unassigned; 21b)
< 0.158 | 25.1 | – | – | – | – | Cc1cc(F)ccc1-c1cc(C2CC(=O)NC2CO)ncc1N(C)C(=O)C(C)(C)c1cc(C(F)(F)F)cc(C(F)(F)F)c1 (single isomer, unassigned; 21a)

From ChEMBL document CHEMBL1909582, “Identification of novel NK1/NK3 dual antagonists for the potential treatment of schizophrenia” (Bioorg Med Chem Lett, 2011)
